Source: patent US6355799B1, “Substituted benzene compounds, process for their preparation, and herbicidal and defoliant compositions containing them” (ISK Americas Incorporated, priority 1997, dated 2002)

What was measured:
Format in all cases: in vivo
[1] = system: upland rice (Oryza sp., var. Tebonnet, RICE); assay: Post-emerge test, crop safety; details: post-emerge, 14 days after application, rating scale 0-100
Method in brief: (§1)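 Rating: 0–100 visual injury, 14 DAA. Application: acetone, 187 l/ha, 15–1000 g ai/ha, flat-fan track sprayer with nozzle 40–45 cm above soil or canopy. Post-emerge runs used 0.25% v/v surfactant on 2–3 leaf plants.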

[2] = system: field corn (Zea mays L., var. Dekalb 535, CORN); assay: Post-emerge test, crop safety; details: post-emerge, 14 days after application, rating scale 0-100
Method in brief: as §1

[3] = system: upland rice (Oryza sp., var. Tebonnet, RICE); assay: Pre-emerge test, crop safety; details: pre-emerge, 14 days after application; for phytotoxicity rating RICE (crop damage): scale 0-100; for phytotoxicity rating RICE: rating scale 0-100
Method in brief: (§2)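 Fourteen days after spraying, crop and weed injury was graded visually from 0, no effect, to 100, every plant dead. Test substances were dissolved in acetone and applied at 15–1000 g ai/ha with a flat-fan nozzle. Application was either pre-emergence, one day after sowing, or post-emergence at the 2–3 leaf stage.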

[4] = system: field corn (Zea mays L., var. Dekalb 535, CORN); assay: Pre-emerge test, crop safety; details: pre-emerge, 14 days after application; for phytotoxicity rating CORN (crop damage): scale 0-100; for phytotoxicity rating CORN: rating scale 0-100
Method in brief: as §2

[5] = system: large crabgrass (Digitaria sanguinalis, DIGSA); assay: Pre-emerge test, greenhouse herbicide activity screening; details: pre-emerge, 14 days after application
Method in brief: (§3)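 Compounds in acetone were track-sprayed at 15–1000 g ai/ha: pre-emergence onto soil sown the previous day, then top-watered to incorporate and later bottom-watered; post-emergence onto 2–3 leaf plants with 0.25% v/v surfactant, bottom-watered only. Ratings on a 0–100 phytotoxicity scale were taken at day 14.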

[6] = system: barnyardgrass (Echinochloa crus-galli, ECHCG); assay: as above; details: pre-emerge, 14 days after application
Method in brief: as §3

[7] = system: velvetleaf (Abutilon theophrasti, ABUTH); assay: as above; details: pre-emerge, 14 days after application
Method in brief: as §3

[8] = system: lambsquarters (Chenopodium album, CHEAL); assay: as above; details: pre-emerge, 14 days after application
Method in brief: as §3

[9] = system: green foxtail (Setaria viridis, SETVI); assay: as above; details: pre-emerge, 14 days after application
Method in brief: as §3

[10] = system: sicklepod (Cassia obtusifolia, CASOB); assay: as above; details: pre-emerge, 14 days after application
Method in brief: as §3

[11] = system: ivyleaf morningglory (Ipomoea hederacea, IPOHE); assay: as above; details: pre-emerge, 14 days after application
Method in brief: as §3

[12] = system: johnsongrass (Sorghum halepense, SORHA); assay: as above; details: pre-emerge, 14 days after application
Method in brief: as §3

[13] = system: large crabgrass (Digitaria sanguinalis, DIGSA); assay: Post-emerge test, greenhouse herbicide activity screening; details: post-emerge, 14 days after application, rating scale 0-100
Method in brief: (§4)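 Plants grown in 10 cm pots of sandy loam mix received acetone-dissolved compounds through a moving flat-fan nozzle. Doses ranged from 15 to 1000 g ai/ha. Pre-emerge pots were seeded one day earlier, post-emerge pots 8–21 days earlier. Fourteen days on, each pot was graded 0–100 for damage.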

[14] = system: redroot pigweed (Amaranthus retroflexus, AMARE); assay: as above; details: post-emerge, 14 days after application
Method in brief: as §4

[15] = system: barnyardgrass (Echinochloa crus-galli, ECHCG); assay: as above; details: post-emerge, 14 days after application, rating scale 0-100
Method in brief: as §4

[16] = system: velvetleaf (Abutilon theophrasti, ABUTH); assay: as above; details: post-emerge, 14 days after application, rating scale 0-100
Method in brief: as §4

[17] = system: green foxtail (Setaria viridis, SETVI); assay: as above; details: post-emerge, 14 days after application, rating scale 0-100
Method in brief: as §4

[18] = system: sicklepod (Cassia obtusifolia, CASOB); assay: as above; details: post-emerge, 14 days after application, rating scale 0-100
Method in brief: as §4

[19] = system: ivyleaf morningglory (Ipomoea hederacea, IPOHE); assay: as above; details: post-emerge, 14 days after application, rating scale 0-100
Method in brief: as §4

[20] = system: redroot pigweed (Amaranthus retroflexus, AMARE); assay: Pre-emerge test, greenhouse herbicide activity screening; details: pre-emerge, 14 days after application
Method in brief: as §4

[21] = 250 g ai/ha, rating scale 0-100

## COc1c(Cl)cc(Cl)c(-n2c(=O)cc(C(F)(F)F)n(C)c2=O)c1NC(=O)c1ccc2ccccc2c1 [2-144]
[1]; 63 g ai/ha
  RICE phytotoxicity rating (crop damage): 15
[1]; 250 g ai/ha
  RICE phytotoxicity rating (crop damage): 35
[2]; 63 g ai/ha
  CORN phytotoxicity rating (crop damage): 40
[2]; 250 g ai/ha
  CORN phytotoxicity rating (crop damage): 20
[3]; 63 g ai/ha
  phytotoxicity rating RICE (crop damage): 20
[3]; 250 g ai/ha
  phytotoxicity rating RICE (crop damage): 45
[4]; 63 g ai/ha
  phytotoxicity rating CORN (crop damage): 0
[4]; 250 g ai/ha
  phytotoxicity rating CORN (crop damage): 0
[5]; 63 g ai/ha, scale 0-100
  phytotoxicity rating DIGSA: 20
[5]; 250 g ai/ha, scale 0-100
  phytotoxicity rating DIGSA: 70
[6]; 63 g ai/ha, scale 0-100
  phytotoxicity rating ECHCG: 20
[6]; 250 g ai/ha, scale 0-100
  phytotoxicity rating ECHCG: 75
[7]; 63 g ai/ha, scale 0-100
  phytotoxicity rating ABUTH: 70
[7]; 250 g ai/ha, scale 0-100
  phytotoxicity rating ABUTH: 100
[8]; 63 g ai/ha, scale 0-100
  phytotoxicity rating CHEAL: 100
[8]; 250 g ai/ha, scale 0-100
  phytotoxicity rating CHEAL: 100
[9]; 63 g ai/ha, scale 0-100
  phytotoxicity rating SETVI: 40
[9]; 250 g ai/ha, scale 0-100
  phytotoxicity rating SETVI: 90
[10]; 63 g ai/ha, scale 0-100
  phytotoxicity rating CASOB: 0
[10]; 250 g ai/ha, scale 0-100
  phytotoxicity rating CASOB: 20
[11]; 63 g ai/ha, scale 0-100
  phytotoxicity rating IPOHE: 0
[11]; 250 g ai/ha, scale 0-100
  phytotoxicity rating IPOHE: 30
[12]; 63 g ai/ha, scale 0-100
  phytotoxicity rating SORHA: 10
[12]; 250 g ai/ha, scale 0-100
  phytotoxicity rating SORHA: 70
[13]; 63 g ai/ha
  DIGSA phytotoxicity rating: 0
[13]; 250 g ai/ha
  DIGSA phytotoxicity rating: 0
[14]; 63 g ai/ha, rating scale 0-100
  AMARE phytotoxicity rating: 75
[14]; [21]
  AMARE phytotoxicity rating: 90
[15]; 63 g ai/ha
  ECHCG phytotoxicity rating: 0
[15]; 250 g ai/ha
  ECHCG phytotoxicity rating: 10
[16]; 63 g ai/ha
  ABUTH phytotoxicity rating: 85
[16]; 250 g ai/ha
  ABUTH phytotoxicity rating: 100
[17]; 63 g ai/ha
  SETVI phytotoxicity rating: 0
[17]; 250 g ai/ha
  SETVI phytotoxicity rating: 30
[18]; 63 g ai/ha
  CASOB phytotoxicity rating: 60
[18]; 250 g ai/ha
  CASOB phytotoxicity rating: 85
[19]; 63 g ai/ha
  IPOHE phytotoxicity rating: 60
[19]; 250 g ai/ha
  IPOHE phytotoxicity rating: 70
[20]; 63 g ai/ha, scale 0-100
  phytotoxicity rating AMARE: 99
[20]; 250 g ai/ha, scale 0-100
  phytotoxicity rating AMARE: 100

## CCOC(=O)NNc1c(OC)c(Cl)cc(F)c1-n1c(=O)cc(C(F)(F)F)n(C)c1=O [15-6]
[1]; 63 g ai/ha
  Post-emerge Herbicidal Activity RICE (crop damage rating): 60
[1]; 250 g ai/ha
  Post-emerge Herbicidal Activity RICE (crop damage rating): 95
[2]; 63 g ai/ha
  Post-emerge Herbicidal Activity CORN (crop damage rating): 25
[2]; 250 g ai/ha
  Post-emerge Herbicidal Activity CORN (crop damage rating): 80
[3]; 63 g ai/ha
  phytotoxicity rating RICE: 98
[3]; 250 g ai/ha
  phytotoxicity rating RICE: 100
[4]; 63 g ai/ha
  phytotoxicity rating CORN: 95
[4]; 250 g ai/ha
  phytotoxicity rating CORN: 100
[5]; 63 g ai/ha, rating scale 0-100
  phytotoxicity rating DIGSA: 100
[5]; [21]
  phytotoxicity rating DIGSA: 100
[6]; 63 g ai/ha, rating scale 0-100
  phytotoxicity rating ECHCG: 99
[6]; [21]
  phytotoxicity rating ECHCG: 100
[7]; 63 g ai/ha, rating scale 0-100
  phytotoxicity rating ABUTH: 100
[7]; [21]
  phytotoxicity rating ABUTH: 100
[8]; 63 g ai/ha, rating scale 0-100
  phytotoxicity rating CHEAL: 100
[8]; [21]
  phytotoxicity rating CHEAL: 100
[9]; 63 g ai/ha, rating scale 0-100
  phytotoxicity rating SETVI: 99
[9]; [21]
  phytotoxicity rating SETVI: 100
[10]; 63 g ai/ha, rating scale 0-100
  phytotoxicity rating CASOB: 90
[10]; [21]
  phytotoxicity rating CASOB: 100
[11]; 63 g ai/ha, rating scale 0-100
  phytotoxicity rating IPOHE: 100
[11]; [21]
  phytotoxicity rating IPOHE: 100
[12]; 63 g ai/ha, rating scale 0-100
  phytotoxicity rating SORHA: 100
[12]; [21]
  phytotoxicity rating SORHA: 100
[13]; 63 g ai/ha
  Post-emerge Herbicidal Activity DIGSA (phytotoxicity rating): 0
[13]; 250 g ai/ha
  Post-emerge Herbicidal Activity DIGSA (phytotoxicity rating): 90
[14]; 63 g ai/ha, rating scale 0-100 (0 no damage, 100 complete death)
  Post-emerge Herbicidal Activity AMARE (phytotoxicity rating): 50
[14]; [21]
  Post-emerge Herbicidal Activity AMARE (phytotoxicity rating): 85
[15]; 63 g ai/ha
  Post-emerge Herbicidal Activity ECHCG (phytotoxicity rating): 20
[15]; 250 g ai/ha
  Post-emerge Herbicidal Activity ECHCG (phytotoxicity rating): 95
[16]; 63 g ai/ha
  Post-emerge Herbicidal Activity ABUTH (phytotoxicity rating): 100
[16]; 250 g ai/ha
  Post-emerge Herbicidal Activity ABUTH (phytotoxicity rating): 100
[17]; 63 g ai/ha
  Post-emerge Herbicidal Activity SETVI (phytotoxicity rating): 30
[17]; 250 g ai/ha
  Post-emerge Herbicidal Activity SETVI (phytotoxicity rating): 75
[18]; 63 g ai/ha
  Post-emerge Herbicidal Activity CASOB (phytotoxicity rating): 30
[18]; 250 g ai/ha
  Post-emerge Herbicidal Activity CASOB (phytotoxicity rating): 70
[19]; 63 g ai/ha
  Post-emerge Herbicidal Activity IPOHE (phytotoxicity rating): 50
[19]; 250 g ai/ha
  Post-emerge Herbicidal Activity IPOHE (phytotoxicity rating): 100
[20]; 63 g ai/ha, rating scale 0-100
  phytotoxicity rating AMARE: 100
[20]; [21]
  phytotoxicity rating AMARE: 100
